Data on five molecules can be found in article PMC8565742 (PLoS Neglected Tropical Diseases, 2021).

Bounds are passed on as bounds.

Assay [1] deals with T1, Sm.TRPMPZQ (Schistosoma mansoni, UniProt A0A5K4F0X5). As to the kind of experiment: cell-based. The conditions noted are these: S3 Table, titration. As for the experimental part: HEK cells were transfected with cDNA (400μg/ml DNA) encoding Sm.TRPMPZQ using a Maxcyte STX electroporation system and incubated overnight at 37°C. This system is uniquely capabable of large scale transfections providing one batch of cells ready for large scale HTS [30]. Briefly, the HEK cells were resuspended at 10^8/ml in Maxcyte electroporation buffer. Plasmid DNA was added to the cells in buffer to achieve a concentration of 400 μg/ml from a stock of 5mg/ml (in TE buffer). This mixture was loaded into the appropriate cassette, inserted into the machine, and cells electroporated. Cells were then frozen to provide a single supply of transfected cells for all subsequent assays. On the day of the assays, cells were thawed in a 37°C waterbath, and resuspended in DMEM + 10% FBS and counted. The cells were pelleted by centrifugation at 170xg for 5 minutes. The media was aspirated, and the remaining pellet was resuspended in 1x HBSS with 20 mM HEPES and 1% DMSO to achieve 1.33x10^6cells/ml. This cell suspension was then dispensed at 3 μl/well to the 1536 well plates (Greiner Bio One part 789072) at a density of 4,000 cells/well. Measurements of fluorescence intensity (λex = 470 nm, λem = 535 nm) were made using a FLIPR (Molecular Devices FLIPR Tetra). A read of basal fluorescence values was made (5s) prior to addition of compounds or controls (30 nl). In both ‘agonist’ and ‘antagonist mode’, the total assay volume was 6μl (1% DMSO). […] Ligand performance was categorized using an algorithm based on the activity of the entire dataset to define a ‘hit-cutoff’ parameter for both agonist-mode and antagonist-mode screening. […] Titration assays were executed using the same reagents, protocols and detection systems, done as 10-point concentration-response curves, performed in triplicate. Counter-screening was performed using untransfected HEK293 cells for comparison with results testing the same compounds effect on cells expressing Sm.TRPMPZQ, with ATP used as the positive control. For each compound, activity was plotted against compound concentration and data were fitted with a sigmoidal function. […] ChemAxon (https://www.chemaxon.com) academic licensing was provided for the use of Instant JChem (ver. 15.10.12.0) to perform compound mining of the libraries utilized in this effort.
T1 sequence (A0A5K4F0X5 entry or part of it): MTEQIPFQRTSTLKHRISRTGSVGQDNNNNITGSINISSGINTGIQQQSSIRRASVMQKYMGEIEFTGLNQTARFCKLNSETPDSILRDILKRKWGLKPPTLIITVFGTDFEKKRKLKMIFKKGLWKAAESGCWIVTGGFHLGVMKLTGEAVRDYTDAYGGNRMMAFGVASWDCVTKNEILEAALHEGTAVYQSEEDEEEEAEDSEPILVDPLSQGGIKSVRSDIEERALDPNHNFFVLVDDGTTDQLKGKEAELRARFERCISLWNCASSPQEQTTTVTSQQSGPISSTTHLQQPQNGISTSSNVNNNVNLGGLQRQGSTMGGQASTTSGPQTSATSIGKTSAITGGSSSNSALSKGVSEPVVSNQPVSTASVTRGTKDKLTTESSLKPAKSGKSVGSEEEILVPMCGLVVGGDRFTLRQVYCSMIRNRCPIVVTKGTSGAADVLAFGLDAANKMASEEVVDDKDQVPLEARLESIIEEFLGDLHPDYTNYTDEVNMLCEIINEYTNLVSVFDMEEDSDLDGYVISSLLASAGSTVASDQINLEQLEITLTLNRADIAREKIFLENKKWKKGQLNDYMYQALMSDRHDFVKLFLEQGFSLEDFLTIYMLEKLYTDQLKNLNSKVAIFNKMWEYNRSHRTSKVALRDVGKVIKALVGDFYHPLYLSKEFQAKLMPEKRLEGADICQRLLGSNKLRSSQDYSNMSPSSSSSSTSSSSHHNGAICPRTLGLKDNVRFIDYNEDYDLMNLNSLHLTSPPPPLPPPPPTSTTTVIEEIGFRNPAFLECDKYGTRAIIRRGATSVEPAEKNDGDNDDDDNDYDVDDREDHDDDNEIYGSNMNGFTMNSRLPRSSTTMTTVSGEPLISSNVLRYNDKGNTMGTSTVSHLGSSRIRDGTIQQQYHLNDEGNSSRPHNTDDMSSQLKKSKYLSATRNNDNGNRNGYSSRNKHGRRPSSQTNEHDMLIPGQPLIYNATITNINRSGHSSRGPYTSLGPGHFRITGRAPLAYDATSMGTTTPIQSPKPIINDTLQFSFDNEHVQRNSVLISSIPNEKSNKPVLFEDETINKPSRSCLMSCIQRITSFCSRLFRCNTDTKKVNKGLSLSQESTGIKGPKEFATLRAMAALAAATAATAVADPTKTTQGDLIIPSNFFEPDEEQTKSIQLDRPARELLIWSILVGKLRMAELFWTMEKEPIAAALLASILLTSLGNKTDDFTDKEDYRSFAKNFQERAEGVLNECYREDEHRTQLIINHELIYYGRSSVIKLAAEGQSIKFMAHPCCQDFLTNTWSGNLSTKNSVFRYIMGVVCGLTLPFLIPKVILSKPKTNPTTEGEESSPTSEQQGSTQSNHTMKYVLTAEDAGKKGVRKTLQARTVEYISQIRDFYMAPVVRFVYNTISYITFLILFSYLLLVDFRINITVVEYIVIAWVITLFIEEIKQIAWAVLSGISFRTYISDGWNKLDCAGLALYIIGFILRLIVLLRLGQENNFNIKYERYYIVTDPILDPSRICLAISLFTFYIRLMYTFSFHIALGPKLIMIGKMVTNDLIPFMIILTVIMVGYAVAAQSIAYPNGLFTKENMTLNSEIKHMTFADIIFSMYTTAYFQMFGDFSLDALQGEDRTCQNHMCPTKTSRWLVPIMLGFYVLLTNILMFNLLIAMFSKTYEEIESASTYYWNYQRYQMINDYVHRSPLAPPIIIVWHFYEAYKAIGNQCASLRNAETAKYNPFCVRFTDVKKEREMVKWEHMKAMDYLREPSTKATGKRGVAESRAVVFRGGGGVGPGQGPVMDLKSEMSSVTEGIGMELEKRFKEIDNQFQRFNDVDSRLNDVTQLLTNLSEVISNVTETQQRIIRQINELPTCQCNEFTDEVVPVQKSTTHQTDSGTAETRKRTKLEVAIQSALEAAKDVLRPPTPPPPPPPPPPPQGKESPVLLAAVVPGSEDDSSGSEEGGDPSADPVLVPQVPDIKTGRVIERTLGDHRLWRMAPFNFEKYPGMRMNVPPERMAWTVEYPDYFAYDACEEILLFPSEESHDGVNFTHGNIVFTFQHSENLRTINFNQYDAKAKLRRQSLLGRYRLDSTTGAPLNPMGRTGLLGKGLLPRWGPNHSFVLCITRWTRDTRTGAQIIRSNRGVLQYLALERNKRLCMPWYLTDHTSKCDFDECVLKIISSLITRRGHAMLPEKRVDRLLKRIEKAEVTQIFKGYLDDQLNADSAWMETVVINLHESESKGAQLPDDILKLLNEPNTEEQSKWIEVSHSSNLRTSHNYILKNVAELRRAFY

The target in assay [2] is T1, Sm.TRPMPZQ. As to the kind of experiment: cell-based. The conditions noted are these: S3 Table, titration. As for the experimental part: HEK cells were transfected with cDNA (400μg/ml DNA) encoding Sm.TRPMPZQ using a Maxcyte STX electroporation system and incubated overnight at 37°C. This system is uniquely capabable of large scale transfections providing one batch of cells ready for large scale HTS [30]. Briefly, the HEK cells were resuspended at 10^8/ml in Maxcyte electroporation buffer. Plasmid DNA was added to the cells in buffer to achieve a concentration of 400 μg/ml from a stock of 5mg/ml (in TE buffer). This mixture was loaded into the appropriate cassette, inserted into the machine, and cells electroporated. Cells were then frozen to provide a single supply of transfected cells for all subsequent assays. On the day of the assays, cells were thawed in a 37°C waterbath, and resuspended in DMEM + 10% FBS and counted. The cells were pelleted by centrifugation at 170xg for 5 minutes. The media was aspirated, and the remaining pellet was resuspended in 1x HBSS with 20 mM HEPES and 1% DMSO to achieve 1.33x10^6cells/ml. […] A read of basal fluorescence values was made (5s) prior to addition of compounds or controls (30 nl). In both ‘agonist’ and ‘antagonist mode’, the total assay volume was 6μl (1% DMSO). […] Ligand performance was categorized using an algorithm based on the activity of the entire dataset to define a ‘hit-cutoff’ parameter for both agonist-mode and antagonist-mode screening. […] Titration assays were executed using the same reagents, protocols and detection systems, done as 10-point concentration-response curves, performed in triplicate. Counter-screening was performed using untransfected HEK293 cells for comparison with results testing the same compounds effect on cells expressing Sm.TRPMPZQ, with ATP used as the positive control. For each compound, activity was plotted against compound concentration and data were fitted with a sigmoidal function.
This is another data set of the same source.

In assay [3] the test system is untransfected HEK293 cells. The experiment in a line: Counterscreen, antagonist mode, Ca2+ signal in untransfected HEK cells. It counts as cell-based. The note with it: S3 Table, counterscreen titration. Here is the method: (§1) HEK cells were transfected with cDNA (400μg/ml DNA) encoding Sm.TRPMPZQ using a Maxcyte STX electroporation system and incubated overnight at 37°C. This system is uniquely capabable of large scale transfections providing one batch of cells ready for large scale HTS [30]. Briefly, the HEK cells were resuspended at 10^8/ml in Maxcyte electroporation buffer. Plasmid DNA was added to the cells in buffer to achieve a concentration of 400 μg/ml from a stock of 5mg/ml (in TE buffer). This mixture was loaded into the appropriate cassette, inserted into the machine, and cells electroporated. Cells were then frozen to provide a single supply of transfected cells for all subsequent assays. On the day of the assays, cells were thawed in a 37°C waterbath, and resuspended in DMEM + 10% FBS and counted. The cells were pelleted by centrifugation at 170xg for 5 minutes. The media was aspirated, and the remaining pellet was resuspended in 1x HBSS with 20 mM HEPES and 1% DMSO to achieve 1.33x10^6cells/ml. This cell suspension was then dispensed at 3 μl/well to the 1536 well plates (Greiner Bio One part 789072) at a density of 4,000 cells/well. Measurements of fluorescence intensity (λex = 470 nm, λem = 535 nm) were made using a FLIPR (Molecular Devices FLIPR Tetra). A read of basal fluorescence values was made (5s) prior to addition of compounds or controls (30 nl). In both ‘agonist’ and ‘antagonist mode’, the total assay volume was 6μl (1% DMSO). […] Ligand performance was categorized using an algorithm based on the activity of the entire dataset to define a ‘hit-cutoff’ parameter for both agonist-mode and antagonist-mode screening. Any compound with greater percent activation than this cutoff was assigned as ‘active’ prior to titration and counter-screening. Titration assays were executed using the same reagents, protocols and detection systems, done as 10-point concentration-response curves, performed in triplicate. Counter-screening was performed using untransfected HEK293 cells for comparison with results testing the same compounds effect on cells expressing Sm.TRPMPZQ, with ATP used as the positive control. For each compound, activity was plotted against compound concentration and data were fitted with a sigmoidal function. In order to be considered a hit at this stage a compound must achieve a EC50<5 μM for agonists and IC50 <5 μM for antagonists. All compounds selected for titration were subjected to LC-MS analysis to confirm mass and sample purity. ChemAxon (https://www.chemaxon.com) academic licensing was provided for the use of Instant JChem (ver. 15.10.12.0) to perform compound mining of the libraries utilized in this effort.
On the technique in general: Counterscreens check selectivity or assay interference.

In assay [4] the test system is untransfected HEK293 cells. The experiment in a line: Counterscreen, agonist mode, Ca2+ signal in untransfected HEK cells. It counts as cell-based. The conditions noted are these: S3 Table, counterscreen titration; for EC50: unit inferred, read-out: HEK AG Final EC50. As for the experimental part: as §1
The test system of the next assay is endogenous receptors. The conditions noted are these: confocal Ca2+ imaging; cited from earlier work.
The target in assay [5] is T1, Sm.TRPMPZQ. The conditions noted are these: human TRPM8 agonists; cited from earlier work.

With `FC(F)(F)c1ccc2c(c1)nc(SCc1ccccc1)n2CCc1ccccc1` [SR-07000003001-2], at Sm.TRPMPZQ [1], the “Sm.TRPMPZQ AG Averaged Max % Response” value was found to be 3.104%. On Sm.TRPMPZQ [2], the “Sm.TRPMPZQ ANT Averaged Max % Response” value was found to be 61.2456%. Moreover, the “HEK ANT Averaged Max % Response” value in assay [3] is recorded as 21.2984%. In addition, in assay [4], the “HEK AG Averaged Max % Response” value is given as 8.753% and the EC50 was over 12.4 µM.

For the molecule `Nc1ncnc2c1ncn2[C@@H]1O[C@H](COP(=O)(O)OP(=O)(O)OP(=O)(O)O)[C@@H](O)[C@H]1O` [ATP], the “ΔF/F, amplitude of Ca2+ transient” value in the assay with endogenous receptors was 4.5±1.5.

Consider `O=C1NC(c2cccc([N+](=O)[O-])c2)=CCN1c1ccccc1O` [icilin], for which the “activation of Sm.TRPMPZQ” value on Sm.TRPMPZQ [5] was “not activated”.

Take `CC1CCC(C(C)C)C(O)C1` (stereo not shown) [menthol]: at Sm.TRPMPZQ [5], the “activation of Sm.TRPMPZQ” value is “not activated”.

In the case of `Cc1cc(C)n(-c2ccc(-n3cccc3/C=C(/C#N)S(=O)(=O)c3ccccc3)cc2)n1` [SR-02000000290-3], on Sm.TRPMPZQ [1], the “Sm.TRPMPZQ AG Averaged Max % Response” value stood at 6.499%. In addition, at Sm.TRPMPZQ [2], the “Sm.TRPMPZQ ANT Averaged Max % Response” value turned out to be 71.9269%. Besides, in assay [3], the “HEK ANT Averaged Max % Response” value was 37.5091%. Besides, in assay [4], the “HEK AG Averaged Max % Response” value worked out at 13.2678% and the EC50 was over 12.4 µM.

Usually EC50 stands for the concentration that produces a half-maximal response.
